# Test results as given in patent publication US9868748B2, “Thiazolopyrrolidine inhibitors of ROR- γ” (Vitae Pharmaceuticals, Inc., priority 2013, dated 2018).
# Where two headings read alike, the source gives them in different places.
# Key:
# [1] = target: recombinant RORγ Ligand Binding Domain (LBD) protein (Homo sapiens (Human), UniProt P51449); assay: Radio-Ligand RORγ Binding Assay (Assay 1); details: competition with 25-hydroxy [26,27-3H]-cholesterol, SPA, read-out: RORγ Binding Ki Range*
# recombinant RORγ Ligand Binding Domain (LBD) protein, sequence (P51449 269-508): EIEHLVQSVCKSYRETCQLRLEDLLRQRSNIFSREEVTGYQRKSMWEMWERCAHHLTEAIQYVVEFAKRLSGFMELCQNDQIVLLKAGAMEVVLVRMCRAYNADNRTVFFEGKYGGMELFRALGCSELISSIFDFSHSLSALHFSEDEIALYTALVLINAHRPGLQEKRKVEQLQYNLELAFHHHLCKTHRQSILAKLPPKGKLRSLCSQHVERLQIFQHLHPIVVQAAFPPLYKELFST
# Method in brief: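 Scintillation proximity competition binding of 8.6 nM stock 25-hydroxy[26,27-3H]cholesterol to 24 nM stock 6×His-GST-tagged human RORγ LBD, in 50 mM HEPES pH 7.4 with NaCl, MgCl2, glycerol, CHAPS, β-octylglucopyranoside and DTT, room temperature. Inhibition referenced to DMSO and 10 μM T0901317; IC50 by four-parameter fit, converted to Ki using radioligand concentration and KD.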
# [2] = target: full-length RORγt in Jurkat cells (Homo sapiens (Human), UniProt P51449); assay: RORγt 5xRORE Assay in Jurkat Cells (Assay 2); type: cell-based; details: Nanoluc luciferase reporter, 16-18 hrs
# full-length RORγt in Jurkat cells, sequence (P51449 other isoform, or with tags, fused parts or gaps): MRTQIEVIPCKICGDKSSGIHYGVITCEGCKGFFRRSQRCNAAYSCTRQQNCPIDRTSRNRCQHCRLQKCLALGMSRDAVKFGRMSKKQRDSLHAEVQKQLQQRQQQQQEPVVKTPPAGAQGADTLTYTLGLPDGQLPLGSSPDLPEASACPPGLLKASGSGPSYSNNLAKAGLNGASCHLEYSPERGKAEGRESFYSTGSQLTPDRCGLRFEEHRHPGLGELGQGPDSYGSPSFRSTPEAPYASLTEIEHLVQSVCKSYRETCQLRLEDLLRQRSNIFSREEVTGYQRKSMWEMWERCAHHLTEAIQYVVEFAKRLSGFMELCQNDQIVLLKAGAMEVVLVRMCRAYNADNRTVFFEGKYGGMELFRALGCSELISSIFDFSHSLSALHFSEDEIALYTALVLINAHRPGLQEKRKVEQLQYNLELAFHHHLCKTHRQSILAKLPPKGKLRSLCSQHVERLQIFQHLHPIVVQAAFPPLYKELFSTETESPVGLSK
# Experimental: [formula] RORγt 5xRORE Assay in Jurkat Cells (Assay 2)
# Compounds of the present invention were tested for RORγ inverse agonist activity in a cell-based, transcriptional activity assay. Secreted Nanoluc® luciferase was used as a reporter for transcriptional activity of the full-length RORγt in Jurkat cells (ATCC, Cat. # TIB-152). A reporter plasmid was constructed by inserting 5 repeats of the ROR Response Element (RORE) […] (SEQ ID NO:1) into a commercially available promoterless plasmid pNL1.3[secNluc] (Promega, Cat. # N1021) using KpnI and HindIII restriction sites. The expression plasmid for RORγt was purchased (Geneocopoeia, Cat. # EX-T6988-M02). Jurkat cells (30 million cells) were transfected with 11 μg of EX-T6988-MO2 and 26 μg of the reporter plasmid in OptiMEM® media using Lipofectamine® LTX and Plus™ reagents (Life Technologies, Cat. #15338-100). After 5-6 h of incubation at 37° C./5% CO2, the cells were collected, resuspended in phenol-red free RPMI media containing 10% (v/v) delipidated FBS (Hyclone, Cat. # SH30855.03) and dispensed into 96-well clear bottom tissue culture plates (CoStar, Cat. #3603), at 80,000 cells per well. Tested compounds were added to the cells in the same media (final concentration of DMSO was 0.1% (v/v)), and the plates were incubated at 37° C./5% CO2 for 16-18 hrs. Luciferase activity in the conditioned supernatants was determined with NanoGlo® assay reagents (Promega, Cat. # N1130).
# [3] = Table 9, read-out: RORγt5X IC50 Range*
# [4] = Table 8, read-out: RORγt5X IC50 Range*
SMILES,Ki ([1]; Table 9) [nM],"IC50 [2, 3] [nM]",Ki ([1]; Table 8) [nM],"IC50 [2, 4] [nM]"
CCS(=O)(=O)c1ccc(CC(=O)Nc2nc3c(s2)CN(Cc2ccc(=O)n(C(F)F)c2)[C@H]3C(C)C)cc1,< 100,> 1000,–,–
CC(C)[C@H]1c2nc(NC(=O)Cc3ccc(S(C)(=O)=O)cc3)sc2CN1Cc1ccc(-c2nnnn2C)cc1,< 100,< 100,–,–
CCS(=O)(=O)c1ccc(CC(=O)Nc2nc3c(s2)CN(Cc2ccc(C(F)(F)F)c(F)c2)[C@@H]3C(C)C)cc1,< 100,100 to 1000,–,–
"CCS(=O)(=O)c1ccc(CC(=O)Nc2nc3c(s2)CN(Cc2ccc(-c4ccc(=O)n(C)c4)cc2)[C@H]3C(C)C)cc1 [I-A19, (S)-2-(4-(ethylsulfonyl)phenyl)-N-(4-isopropyl-5-(4-(1-methyl-6-oxo-1,6-dihydropyridin-3-yl)benzyl)-5,6-dihydro-4H-pyrrolo[3,4-d]thiazol-2-yl)acetamide]",–,–,< 100,< 100
"CCS(=O)(=O)c1ccc(CC(=O)Nc2nc3c(s2)CN(C[C@H]2CC[C@](OC)(C(F)(F)F)CC2)[C@H]3C(C)C)nc1 (single isomer, unassigned)",< 100,< 100,–,–
CCS(=O)(=O)c1ccc(CC(=O)Nc2nc3c(s2)CN(C[C@H]2CC[C@H](c4nnc(C)o4)CC2)[C@H]3C(C)C)cc1 [I-A23],–,–,< 100,< 100
CCS(=O)(=O)c1ccc(CC(=O)Nc2nc3c(s2)CN(Cc2ccc(C)cc2)[C@H]3C(C)C)cc1 [I-A64],–,–,< 100,< 100
CCS(=O)(=O)c1ccc(CC(=O)Nc2nc3c(s2)CN(Cc2nnc(C(F)(F)F)o2)[C@H]3C(C)C)cc1 [I-A9],–,–,< 100,> 1000
CC(C)[C@H]1c2nc(C(=O)NCc3ccc(S(C)(=O)=O)cc3)sc2CN1Cc1ccc(Cl)cn1 [drawing 378],< 100,100 to 1000,–,–
CCS(=O)(=O)c1ccc(CC(=O)Nc2nc3c(s2)CN(C[C@H]2CC[C@@](C)(OC)CC2)[C@H]3C(C)C)nc1 [I-C6],–,–,< 100,< 100
CCS(=O)(=O)c1ccc(CC(=O)Nc2nc3c(s2)CN(Cc2ccc(C#N)cc2)[C@H]3C(C)C)cc1 [I-A15],–,–,< 100,< 100
CCS(=O)(=O)c1ccc(CC(=O)Nc2nc3c(s2)CN(Cc2ccc(OC(F)F)cc2)[C@@H]3C(C)C)cc1,< 100,> 1000,–,–
"CCS(=O)(=O)c1ccc(CC(=O)Nc2nc3c(s2)CN(Cc2ccc(Cl)cc2)[C@H]3C(C)C)nc1 [I-C1, (S)—N-(5-(4-chlorobenzyl)-4-isopropyl-5,6-dihydro-4H-pyrrolo[3,4-d]thiazol-2-yl)-2-(5-(ethylsulfonyl)pyridin-2-yl)acetamide]",–,–,< 100,< 100
CCS(=O)(=O)c1ccc(CC(=O)Nc2nc3c(s2)CN(Cc2ccc(C(=O)O)cc2)[C@H]3C(C)C)cc1,< 100,100 to 1000,–,–
CCS(=O)(=O)c1ccc(CC(=O)Nc2nc3c(s2)CN(Cc2ccc(C#N)cn2)[C@H]3C(C)C)cc1 [I-A5],–,–,< 100,< 100
CCS(=O)(=O)c1ccc(CC(=O)Nc2nc3c(s2)CN(Cc2ccc(C(F)(F)F)c(OC)n2)[C@H]3C(C)C)cc1 [I-A31],–,–,< 100,< 100
CCS(=O)(=O)c1ccc(CC(=O)Nc2nc3c(s2)CN(Cc2ccc(Cl)cn2)[C@H]3C(C)C)cc1 [I-A11],–,–,< 100,< 100
CCS(=O)(=O)c1ccc(CC(=O)Nc2nc3c(s2)CN([C@H](C)c2ccc(C(F)(F)F)cc2)[C@H]3C(C)C)cc1 [I-A34],–,–,< 100,< 100
CC(C)[C@H]1c2nc(C(=O)NCc3ccc(S(C)(=O)=O)cc3)sc2CN1Cc1ccc(F)cc1,< 100,> 1000,–,–
CC(C)[C@H]1c2nc(NC(=O)Cc3ccc(S(C)(=O)=O)cc3)sc2CN1Cc1ccc(C#N)cc1 [I-B18],–,–,< 100,< 100
CC(C)[C@@H]1c2nc(NC(=O)Cc3ccc(S(C)(=O)=O)cc3)sc2CN1Cc1cccc(C#N)c1,100 to 1000,> 1000,–,–
CCS(=O)(=O)c1ccc(CC(=O)Nc2nc3c(s2)CN(Cc2ccc(C#N)cn2)[C@@]3(C)C(C)C)cc1 [drawing 270],< 100,< 100,–,–
CCS(=O)(=O)c1ccc(CC(=O)Nc2nc3c(s2)CN(Cc2ccnc(C(F)(F)F)c2)[C@@H]3C(C)C)cc1,100 to 1000,> 1000,–,–
CC(C)[C@@H]1c2nc(NC(=O)Cc3ccc(S(C)(=O)=O)cc3)sc2CN1Cc1ccc(C(F)(F)F)cc1F,100 to 1000,100 to 1000,–,–

SMILES,Ki ([1]; Table 9) [nM],"IC50 [2, 3] [nM]",Ki ([1]; Table 8) [nM],"IC50 [2, 4] [nM]"
CCS(=O)(=O)c1ccc(CC(=O)Nc2nc3c(s2)CN(C[C@@H]2CC[C@@H](C(F)(F)F)OC2)[C@H]3C(C)C)cc1 [I-A26],–,–,< 100,< 100
CCS(=O)(=O)c1ccc(CC(=O)Nc2nc3c(s2)CN(Cc2ccc(C(F)(F)F)cn2)[C@H]3C(C)C)nc1,< 100,100 to 1000,–,–
CCS(=O)(=O)c1ccc(CC(=O)Nc2nc3c(s2)CN(C[C@H]2CC[C@H](OC)CC2)[C@H]3C(C)C)cc1,< 100,100 to 1000,–,–
CCS(=O)(=O)c1ccc(CNC(=O)c2nc3c(s2)CN(Cc2ccc(C(F)(F)F)nc2)[C@H]3C(C)C)cc1,100 to 1000,100 to 1000,–,–
"CCS(=O)(=O)c1ccc(CC(=O)Nc2nc3c(s2)CN(C[C@H]2CC[C@H](C(F)(F)F)CC2)[C@H]3C(C)C)nc1 (single isomer, unassigned)",< 100,< 100,–,–
"CCS(=O)(=O)c1ccc(CC(=O)Nc2nc3c(s2)CN(C[C@@H]2CC[C@H](C(F)(F)F)N(C4CC4)C2)[C@H]3C(C)C)cc1 (single isomer, unassigned)",< 100,> 1000,–,–
CCS(=O)(=O)c1ccc(CC(=O)Nc2nc3c(s2)CN(c2nc(C)cc(C(F)(F)F)n2)[C@H]3C(C)C)cc1,< 100,> 1000,–,–
"CC(C)[C@H]1c2nc(NC(=O)Cc3ccc(S(C)(=O)=O)cc3)sc2CN1[C@H](C)c1ccc(Cl)cn1 (single isomer, unassigned)",< 100,100 to 1000,–,–
CC(C)[C@H]1c2nc(NC(=O)Cc3ccc(S(C)(=O)=O)cc3)sc2CN1Cc1ccn(C(F)F)c(=O)c1,< 100,100 to 1000,–,–
CCS(=O)(=O)c1ccc(CC(=O)Nc2nc3c(s2)CN(Cc2ccc(C)nn2)[C@H]3C(C)C)cc1,< 100,> 1000,–,–
CCS(=O)(=O)c1ccc(CC(=O)Nc2nc3c(s2)CN(Cc2c(F)cc(C#N)cc2F)[C@H]3C(C)C)cc1,< 100,100 to 1000,–,–
CCS(=O)(=O)c1ccc(CC(=O)Nc2nc3c(s2)CN(C[C@H]2CC[C@@H](C(F)(F)F)CC2)C3C(C)C)cc1 (stereo partly drawn),< 100,> 1000,–,–
CCS(=O)(=O)c1ccc(CC(=O)Nc2nc3c(s2)CN(C[C@H]2C[C@H](C#N)C2)[C@H]3C(C)C)cc1 (relative stereo),< 100,> 1000,–,–
CCS(=O)(=O)c1ccc(CC(=O)Nc2nc3c(s2)CN([C@H](C)Cc2ccccc2)[C@@H]3C(C)C)cc1,< 100,> 1000,–,–
CCS(=O)(=O)c1ccc(CC(=O)Nc2nc3c(s2)CN(CCc2ccccc2)[C@@H]3C(C)C)cc1,< 100,> 1000,–,–
CCS(=O)(=O)c1cnc(CC(=O)Nc2nc3c(s2)CN(Cc2ccc(C(F)(F)F)cc2)[C@H]3C(C)C)nc1,< 100,100 to 1000,–,–
CCS(=O)(=O)c1ccc(CC(=O)Nc2nc3c(s2)CN(Cc2ccn(C)c(=O)c2)[C@H]3C(C)C)cc1,100 to 1000,> 1000,–,–
CCS(=O)(=O)c1ccc(CC(=O)Nc2nc3c(s2)CN(CC2CCn4c(C)nnc4C2)[C@H]3C(C)C)cc1 (stereo partly drawn),100 to 1000,> 1000,–,–
CCS(=O)(=O)c1ccc(CC(=O)Nc2nc3c(s2)CN(Cc2ccc(-c4ccn(C)c(=O)c4)cc2)[C@H]3C(C)C)nc1 [I-C7],–,–,< 100,< 100
CCS(=O)(=O)c1ccc(CC(=O)Nc2nc3c(s2)CN(Cc2ccc4c(c2)CCO4)[C@H]3C(C)C)cc1,< 100,> 1000,–,–
CC(C)[C@@H]1c2nc(NC(=O)Cc3ccc(S(C)(=O)=O)cc3)sc2CN1Cc1cccc(F)c1,< 100,> 1000,–,–
"CCS(=O)(=O)c1ccc(CC(=O)Nc2nc3c(s2)CN(C[C@H]2CC[C@@H](C(F)(F)F)NC2)[C@H]3C(C)C)cc1 (single isomer, unassigned)",< 100,> 1000,–,–
CC[C@@]1(C)c2nc(NC(=O)Cc3ccc(S(=O)(=O)CC)cc3)sc2CN1Cc1ccc(C#N)cc1,< 100,100 to 1000,–,–
CC[C@H](C)C1c2nc(NC(=O)Cc3ccc(S(C)(=O)=O)cc3)sc2CN1Cc1ccc(Cl)cn1 (stereo partly drawn) [I-H3],–,–,< 100,< 100
